According to patent publication US20190167771A1, “CONTROL ANGIOGENESIS BY REGULATING PHOSPHORYLATION OF SERYL-tRNA SYNTHETASE (SerRS)” (The Scripps Research Institute, priority 2016, published 2019):

Tests used:
[1] = system: ATM/ATR kinases; assay: Phosphorylation of exogenously expressed Flag-tagged SerRS in hypoxic HEK293 cells (IP/IB with anti-P-SQ); type: cell-based, human; settings: hypoxia 12 hours
[2] = system: SerRS binding site on human VEGFA promoter; assay: EMSA with 32P-labeled 27-bp DNA fragment of the VEGFA promoter; settings: recombinant protein
[3] = system: VEGFA; assay: VEGFA expression by qRT-PCR in HEK293 cells transfected with SerRS constructs; type: cell-based, human; settings: HEK293 cells transfected with construct
Procedure: In FIG. 2A, wild type SerRS (SerRS^WT), its mutants with double substitutions of serine 101 and 241 with alanine or aspartic acid residues (SerRS^S101A/S241A and SerRS^S101D/S241D), or empty vector were transfected into HEK293 cells. The expression levels of SerRS proteins was measured by immunoblot (bottom) and VEGFA expression was determined by qRT-PCR (means±SEM from three independent experiments; ***P<0.0001). […] At 3 day post fertilization (dpf), embryos were harvested and Vegfa expression levels were measured by qRT-PCR (means±SEM, n=125-211; *P<0.01, **P<0.001) (B). The development of intersegmental vessel (ISV) at 3 dpf was examined (C) and the statistics of ISV abnormal branching rescued by SerRS^WT or mutant SerRS mRNA injections was analyzed (D; χ^2-test,* P>0.05 vs SerRS^WT, **P>0.1 vs SerRS-MO, ***P<1×10^−28 vs control-MO). […] In FIG. 2G, the binding of endogenous SerRS on VEGFA promoter during hypoxia course was monitored by ChIP (means±SEM from three independent experiments; *P<0.05, **P<0.005 vs normal). […]
HEK293 cells were transfected with wild type (WT) SerRS or SerRS mutants. […] At 24 hours post-transfection, cells were harvested and VEGFA expression levels were measured by qRT-PCR and relative VEGFA transcription were plotted after being normalized to 1-actin (means±: SEM).

[4] = system: VEGFA promoter; assay: Chromatin immunoprecipitation (ChIP) on VEGFA promoter in HEK293 cells; type: cell-based, human; settings: ChIP and qPCR
Procedure: In FIG. 2A, wild type SerRS (SerRS^WT), its mutants with double substitutions of serine 101 and 241 with alanine or aspartic acid residues (SerRS^S101A/S241A and SerRS^S101D/S241D), or empty vector were transfected into HEK293 cells. The expression levels of SerRS proteins was measured by immunoblot (bottom) and VEGFA expression was determined by qRT-PCR (means±SEM from three independent experiments; ***P<0.0001). […] At 3 day post fertilization (dpf), embryos were harvested and Vegfa expression levels were measured by qRT-PCR (means±SEM, n=125-211; *P<0.01, **P<0.001) (B). The development of intersegmental vessel (ISV) at 3 dpf was examined (C) and the statistics of ISV abnormal branching rescued by SerRS^WT or mutant SerRS mRNA injections was analyzed (D; χ^2-test,* P>0.05 vs SerRS^WT, **P>0.1 vs SerRS-MO, ***P<1×10^−28 vs control-MO). […] In FIG. 2G, the binding of endogenous SerRS on VEGFA promoter during hypoxia course was monitored by ChIP (means±SEM from three independent experiments; *P<0.05, **P<0.005 vs normal).
Cells were fixed with formaldehyde (1% final concentration) for 10 min at room temperature. […] After 3 washes, ChIPed DNA was analyzed on the StepOnePlus Real-Time PCR system using SYBR Select Master Mix (Applied Biosystems). […]

Row | Substance | phosphorylation of exogenously expressed SerRS [1] | direct binding to 27-bp DNA fragment from the VEGFA promoter [2] | repression of VEGFA transcription [3] | binding on VEGFA promoter [4]
1 | SerRS^S101A/S241A: phosphorylation-deficient human SerRS double mutant, serine 101 and 241 to alanine, SEQ ID NO: 4 (mouse version in matrigel assay) | much weaker phosphorylation than wild type SerRS | – | – | –
2 | SerRS^S101D/S241D: SerRS with double substitutions of S101 and S241 with aspartic acid, mimics the phosphorylated SerRS | – | attenuated | can no longer repress VEGFA transcription | decreased binding on VEGFA promoter
